Source: patent US9187458B2, “Cyanoquinoline derivatives” (Tianjin Hemay Bio-Tech Co., LTD., priority 2010, dated 2015)

Columns and labels:
[1] = test system: MDA-MB-453 cells; assay: MDA-MB-453 Cell Growth Inhibition Test (SRB Assay); assay type: cell-based; conditions: Homo sapiens, 72 h incubation
Description: MDA-MB-453 Cell Growth Inhibition Test (SRB Assay)
Cell strains: MDA-MB-453 (human breast cancer cell strains);
SRB: 0.4% (w/v) working solution was formulated with 1% glacial acetic acid, reserved at 4° C.; antitumor compounds; DMSO
Culture medium: 90% L15+10% FBS;
(§1) 1. A plate (10 cm) of cells in logarithmic growth phase normally cultured was collected;
2. The culture solution was sucked out. The plate was washed with 5 mL of PBS 1-2 times;
3. 1.5 mL of 0.25% pancreatin was added to the plate to infiltrate the cells;
4. The pancreatin was sucked out. The culture plate was placed in an incubator. Digestion was carried out for about 3 min at 37° C.;
5. 4 mL of complete culture solution was added to the culture plate to stop the digestion. The cells were carefully scoured with micropipette (1 ml) to give a uniform single cell suspension. The suspension was implanted into a 96-well cell culture plate by 7000 cells/100 μl per well. The culture plate was incubated overnight under 5% CO2 at 37° C. In day 2, 100 μl of culture solution comprising a compound was added in each well, and further incubated for 72 h under 5% CO2 at 37° C.;
6. The culture solution was sucked out. 100 uL of TCA fixed cells which were diluted to 10% were added to each well. The plate was kept in a refrigerator for 1 h at 4° C.
7. TCA stationary liquid was sucked out. […]
13. OD values were determined at […]. […]

[2] = test system: BT-474 cells; assay: BT-474 Cell Growth Inhibition Test (SRB Assay); assay type: cell-based, human; conditions: Homo sapiens, 70 h incubation
Outline: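 Human breast tumour BT-474 cells (1×10^5/ml seeding, overnight) exposed to compound 70 h at 37 °C, 5% CO2; TCA-fixed, SRB-stained, dye dissolved in 10 mM Tris and OD read at 570 nm. Inhibition ratio = (PC−n)/(PC−NC)×100%; IC50 is the concentration giving 50% inhibition, from fitted curves.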

[3] = test system: SK-OV-3 cells; assay: SK-OV-3 Cell Growth Inhibition Test (MTT Assay); assay type: cell-based; conditions: Homo sapiens, 72 h incubation
Description: SK-OV-3 Cell Growth Inhibition Test (MTT Assay)
Cell strains: SK-OV-3 (human ovarian cancer cell strains);
Culture medium: 90% McCoy's 5A+10% FBS;
as §1
(§2) 2. The culture solution was sucked out. The plate was washed with 5 ml of PBS 1-2 times;
(§3) 3. PBS was sucked out. 1.5 ml of 0.25% pancreatin was added to infiltrate the cells for 1 min;
4. The pancreatin was sucked out. The culture plate was placed in an incubator. Digestion was carried out for about 5 min at 37° C.;
(§4) 5. 4.5 ml of complete culture solution was added to the culture plate to stop the digestion.T the cells were carefully scoured with micropipette (1 ml) to give a uniform cell suspension. The suspension was implanted into a 96-well cell culture disc by 4000 cells/100 μl per well. The culture plate was incubated overnight under 5% CO2 at 37° C. In day 2, 100 μl of culture solution comprising a compound was added in each well, and further incubated for 72 h under 5% CO2 at 37° C.
(§5) 6. The culture solution was sucked out;
7. 100 μl of serum-free culture solution containing 0.5 mg/ml MTT was added in each well, and incubated for 3 h;
(§6) 8. The culture solution was carefully sucked out;
9. 100 μl of DMSO was added in each well and vibrated to dissolve;
(§7) 10. OD values were determined at 490 nM.
(§8) 1. Calculation of Relative Inhibition Ratio The inhibition ratio of a compound on cell growth=(PC−n)/(PC−NC)×100%
(§9) IC50: Concentration of a compound where inhibition ratio was 50%. IC50 values were fitted with Origin7.5.

[4] = test system: BxPc-3 cells; assay: BxPc-3 Cell Growth Inhibition Test (MTT Assay); assay type: cell-based; conditions: Homo sapiens, 72 h incubation
Description: BxPc-3 Cell Growth Inhibition Test (MTT Assay) Cell strains: BxPC-3 (human pancreatic cancer cell strains); Culture medium: 90% RPMI-1640+10% FBS; 1. A plate (10 cm) of cells in logarithmic growth phase normally cultured was collected; 2. The culture solution was sucked out. […] The plate was washed with 5 ml of PBS 1-2 times; 3. PBS was sucked out. 1.5 ml of 0.25% pancreatin was added to infiltrate the cells for 1 min; 4. The pancreatin was sucked out. The culture plate was placed in an incubator. Digestion was carried out for about 5 min at 37° C.; 5. 4.5 ml of complete culture solution was added to the culture plate to stop the digestion. The cells were carefully scoured with micropipette (1 ml) to give a uniform cell suspension. The suspension was implanted into a 96-well cell culture plate by 5000 cells/100 μl per well. The culture plate was incubated overnight under 5% CO2 at 37° C. In day 2, 100 μl of culture solution comprising a compound was added in each well, and further incubated for 72 h under 5% CO2 at 37° C. 6. The culture solution was sucked out; 7. 100 μl of serum-free culture solution containing 0.5 mg/ml MTT was added in each well, and incubated for 3 h; 8. The culture solution was carefully sucked out; 9. 100 μl of DMSO was added in each well and vibrated to dissolve; 10. OD values were determined at […]. 1. Calculation of Relative Inhibition Ratio The inhibition ratio of a compound on cell growth=(PC−n)/(PC−NC)×100% IC50: Concentration of a compound where inhibition ratio was 50%. IC50 values were fitted with Origin7.5.

[5] = test system: NCI-H358 cells; assay: NCI-H358 Cell Growth Inhibition Test (MTT Assay); assay type: cell-based; conditions: Homo sapiens, 72 h incubation
Description: NCI-H358 Cell Growth Inhibition Test (MTT Assay)
Cell strains: NCI-H358 (human non-small cell lung cancer cell strains);
as §1, §2, §3
4. The culture plate was placed in an incubator. Digestion was carried out for about 5 min at 37° C.;
as §4, with “3” for “4.5”, “digestion. Tthe” for “digestion.T the”, “plate” for “disc”, “10000” for “4000”, “[…]” for “μl”
as §5
7. 100 μA of serum-free culture solution containing 0.5 mg/ml MTT was added in each well, and incubated for 3 h;
as §6
9. 100 μA of DMSO was added in each well and vibrated to dissolve;
as §7, §8, §9

Work on `C#Cc1cccc(Nc2c(C#N)cnc3cc(O[C@H]4CCOC4)c(NC(=O)/C=C/CN(C)CCOC)cc23)c1` [Example 189, (S,E)-N-(3-CYANO-4-(3-ETHYNYLPHENYLAMINO)-7-(TETRAHYDROFURAN-3-YL-OXY)QUINOLIN-6-YL)-4-(N-METHYLMETHOXYETHYLAMINO)-BUT-2-ENAMIDE] yielded an IC50 [1] of 0.523 µM, an IC50 [2] of 0.108 µM and an inhibition at 1 µM ([2]; BT-474, 70 h, compound 1 μM, read-out: Growth Inhibition Ratio (%)) of 85%. The IC50 [3] was 0.312 µM.
`CN1CCC(Oc2cc3ncc(C#N)c(Nc4ccc(Oc5ccccc5)nc4)c3cc2NC(=O)/C=C2/CCNC2)CC1` [Example 131, (E/Z)-N-(3-CYANO-7-(1-METHYLPIPERIDIN-4-YL-OXY)-4-(6-(PHENOXYPYRIDIN-3-YL-AMINO)QUINOLIN-6-YL)-2-(PYRROLIDIN-3-YLIDENE)ACETAMIDE] gave an IC50 [4] of 0.306 µM.
`C#Cc1cccc(Nc2c(C#N)cnc3cc(O[C@H]4CCOC4)c(NC(=O)/C=C/CN(CCO)CCO)cc23)c1` [Example 188, (S,E)-N-(3-CYANO-4-(3-ETHYNYLPHENYLAMINO)-7-(TETRAHYDROFURAN-3-YL-OXY)QUINOLIN-6-YL)-4-(DIETHANOLAMINO)-BUT-2-ENAMIDE] was tested, and the IC50 [5] was 0.11 µM.
